According to article PMC8325119, “A Novel Class of Functionalized Synthetic Fluoroquinolones with Dual Antiproliferative - Antimicrobial Capacities” (Asian Pacific Journal of Cancer Prevention : APJCP, 2021):
Converted amounts (≈) assume the structure as drawn. “And” between values parts separate entries of the source, which are not always exact repeats. Equal values may be shown once. Read-outs that look alike come from different tables or passages of the source.

Experiments:
[1] = test system: A549 cell line; assay: SRB cytotoxicity assay, A549 lung cancer cell line
Description: (§1) All reagents and chemicals of analytical grade were obtained from Sigma (Dorset, UK); unless stated otherwise. All chemicals, reagents and solvents (of analytical grade) were used directly without further purification. MCF7 cell line ATCC® HTB-22™, T47D cell line ATCC® HTB-133™, K562 cell line ATCC® CCL-243™, Panc1 cell line ATCC® CRL-1469™. A375.S2 cell line ATCC® CRL-1872™, A549 cell line ATCC® CCL-185™, HELA cell line ATCC® CCL-2™ were cultured in Dulbecco’s modified eagle’s medium (DMEM). (DMEM) containing foetal bovine serum (FBS) (Bio Whittaker, Verviers, Belgium), 4-(2-hydroxyethyl)-1-piperazine ethane sulfonic acid (HEPES) Buffer, L-glutamine, gentamicin, penicillin, and streptomycin sulphate (Sigma, St. Luis, MO, USA), trypsin, trypan blue, Ciprofloxacin HCl from Aarti drugs Ltd/India, was a kind gift from Pharma International Company- Amman; Fluconazole from Neopharma, United Arab Emirates, a kind gift from Pharmaceutical Research Unit, Amman; Trypon soya agar (TSA), trypon soya broth (TSB), sabouraud dextrose agar (SDA) were obtained from Liofilchem (Italy) or Oxoid LTD (Basingstoke, England), they were reconstituted and sterilized by autoclave at 121 °C for 15 min.
(§2) The cytotoxicity measurements were determined using Sulforhodamine B (SRB) colorimetric assay for cytotoxicity screening. The mechanism of reduction of cell viability was adopted as described previously (Arabiyat et al., 2016a,b; 2017; Alabsi et al., 2018; Jumah, 2018; AlShahrabi et al., 2020). Human periodontal ligament fibroblasts (PDL) are a primary normal cell culture for verification of selective cytotoxicity. […] Selectivity ratio as indicative factor of the safety of compounds was calculated by dividing IC50 of tested compound on normal fibroblasts by IC50 of the same compound on specific pathological cell line (Hoffman et al., 2011).

[2] = test system: A375.S2 cell line; assay: SRB cytotoxicity assay, A375.S2 melanoma cell line
Description: as §1, §2

[3] = test system: MCF7 cell line; assay: SRB cytotoxicity assay, MCF7 breast cancer cell line
Description: as §1, §2

[4] = test system: HELA cell line; assay: SRB cytotoxicity assay, HELA cervical cancer cell line
Description: as §1, §2

[5] = test system: K562 cell line; assay: SRB cytotoxicity assay, K562 leukaemia cell line
Description: as §1, §2

[6] = test system: PANC 1 cell line; assay: SRB cytotoxicity assay, PANC 1 pancreatic cancer cell line
Description: as §1, §2

[7] = test system: T47D cell line; assay: cells; details: 72 h; for IC50: read-out: Cytotoxicity IC50 value, T47D cell line; for Cytotoxicity IC50 value, T47D cell line: value in brackets
Description: as §1, §2

[8] = test system: PDL Fibroblasts; assay: SRB cytotoxicity on normal periodontal ligament fibroblasts, selective cytotoxicity; type: cell-based, Human; details: for IC50 / IC50 value PDL Fibroblasts: normal fibroblasts, SRB, 72 h, mean ± SD; for Selectivity index SI (K562): IC50 on PDL fibroblasts divided by IC50 on K562; for Selectivity index SI (HELA): IC50 on PDL fibroblasts divided by IC50 on HELA
Description: as §2

[9] = Homo sapiens, A549, 72 h, read-out: Cytotoxicity IC50 value, A549 cell line
[10] = Homo sapiens, A375-S2, 72 h, read-out: Cytotoxicity IC50 value, A375.S2 cell line
[11] = Homo sapiens, MCF7, 72 h, read-out: Cytotoxicity IC50 value, MCF7 cell line
[12] = Homo sapiens, HeLa, 72 h, read-out: Cytotoxicity IC50 value, HELA cell line, SRB, 72 h, 0.1-200 μg/mL range, mean ± SD, value in brackets
[13] = Homo sapiens, HeLa, 72 h, read-out: Cytotoxicity IC50 value, HELA cell line, SRB, 72 h, 0.1-200 μg/mL range, mean ± SD, NI = lack of cytotoxicity in range
[14] = Homo sapiens, K562, 72 h, read-out: Cytotoxicity IC50 value, K562 cell line, SRB, 72 h, 0.1-200 μg/mL range, mean ± SD, value in brackets
[15] = Homo sapiens, K562, 72 h, read-out: Cytotoxicity IC50 value, K562 cell line, SRB, 72 h, 0.1-200 μg/mL range, mean ± SD, NI = lack of cytotoxicity in range
[16] = Homo sapiens, PANC-1, 72 h, read-out: Cytotoxicity IC50 value, PANC 1 cell line
[17] = Homo sapiens, Fibroblast, 0.1-200 μg/mL range, NI = lack of cytotoxicity in range
[18] = Homo sapiens, Fibroblast, value in brackets
[19] = SRB, 0.1-200 μg/mL range, mean ± SD
[20] = SRB, 0.1-200 μg/mL range, mean ± SD, NI = lack of cytotoxicity in range
[21] = 0.1-200 μg/mL range, NI = lack of cytotoxicity in range

Row | Structure (SMILES) | IC50 [1, 9] | IC50 [2, 10] | IC50 [3, 11] | IC50 [4, 12] [µg/mL] | IC50 [4, 13] | IC50 [5, 14] [µg/mL] | IC50 [5, 15] | IC50 [6, 16] | IC50 ([7]; Homo sapiens, T47D) | IC50 [8, 17] | IC50 [8, 18] [µg/mL] | further results
1 | CCOC(=O)c1cn(C2CC2)c2c([N+](=O)[O-])c(Cl)c(F)cc2c1=O [1E] | 447 µM and 200 µg/mL | 271 µM and 121 µg/mL | 220 µM and 71.9 µg/mL | 43.3 | 133 ± 4.78 µM | 32.4 | 99.1 ± 7.5 µM | 79.3 µM and 25.9 µg/mL | 108 µM and 35.4 µg/mL | – | – | –
2 | COc1ccccc1Nc1c(F)cc2c(=O)c(C(=O)O)cn(C3CC3)c2c1[N+](=O)[O-] [3a, 1-cyclopropyl-6-fluoro-7-(2-methoxy-phenylamino)-8-nitro-4-oxo-1,4-dihydro-quinoline-3-carboxylic acid] | – | – | – | – | – | – | – | – | > 200 µg/mL | 184 ± 3.69 µM | 76 | Selectivity index SI (MCF7) ([8]; IC50 on PDL fibroblasts divided by IC50 on MCF7): 2.71
3 | COc1cccc(Nc2c(F)cc3c(=O)c(C(=O)O)cn(C4CC4)c3c2[N+](=O)[O-])c1 [3b, 1-cyclopropyl-6-fluoro-7-(3-methoxy-phenylamino)-8-nitro-4-oxo-1,4-dihydro-quinoline-3-carboxylic acid] | > 200 µg/mL | > 200 µg/mL | > 200 µg/mL | – | > 200 µg/mL | – | > 200 µg/mL | > 200 µg/mL | > 200 µg/mL | > 200 µg/mL | – | –
4 | COc1ccc(Nc2c(F)cc3c(=O)c(C(=O)O)cn(C4CC4)c3c2[N+](=O)[O-])cc1 [3c, 1-cyclopropyl-6-fluoro-7-(4-methoxy-phenylamino)-8-nitro-4-oxo-1,4-dihydro-quinoline-3-carboxylic acid] | 64.4 µM and 26.6 µg/mL | 274 µM and 113 µg/mL | 54.2 µM and 22.4 µg/mL | 81.7 | 198 ± 11.1 µM | 32.7 | 79.1 ± 8.69 µM | 40.7 µM and 16.8 µg/mL | 66 µM and 27.3 µg/mL | 107 ± 5.61 µM | 44.3 | Cytotoxicity IC50 value, K562 cell line ([5]; SRB, 72 h, 0.1-200 μg/mL range, mean ± SD, value in brackets): 16.83 ± 0.15 µg/mL; Selectivity index SI (PANC 1) ([8]; IC50 on PDL fibroblasts divided by IC50 on PANC 1): 2.63
5 | CCc1ccc(Nc2c(F)cc3c(=O)c(C(=O)O)cn(C4CC4)c3c2[N+](=O)[O-])cc1 [3d, 1-cyclopropyl-6-fluoro-7-(4-ethyl-phenylamino)-8-nitro-4-oxo-1,4-dihydro-quinoline-3-carboxylic acid] | > 200 µg/mL | 372 µM and 153 µg/mL | > 200 µg/mL | – | > 200 µg/mL | – | > 200 µg/mL | > 200 µg/mL | > 200 µg/mL | 728 ± 119 µM | 300 | Selectivity index SI (A375.S2) ([8]; IC50 on PDL fibroblasts divided by IC50 on A375.S2): 1.95
6 | CCCCc1ccc(Nc2c(F)cc3c(=O)c(C(=O)O)cn(C4CC4)c3c2[N+](=O)[O-])cc1 [3e, 1-cyclopropyl-6-fluoro-7-(4-butyl-phenylamino)-8-nitro-4-oxo-1,4-dihydro-quinoline-3-carboxylic acid] | 64.2 µM and 28.2 µg/mL | 144 µM and 63.5 µg/mL | 428 µM and 188 µg/mL | 498 | 1130 ± 65.6 µM | 0.71 | 1.62 ± 0.16 µM | 12.2 µM and 5.38 µg/mL | 406 µM and 178 µg/mL | 711 ± 44.9 µM | 313 | Selectivity index SI (K562) [8]: 439.01
7 | CCCCCCc1ccc(Nc2c(F)cc3c(=O)c(C(=O)O)cn(C4CC4)c3c2[N+](=O)[O-])cc1 [3f, 1-cyclopropyl-6-fluoro-7-(4-hexyl-phenylamino)-8-nitro-4-oxo-1,4-dihydro-quinoline-3-carboxylic acid] | 63.9 µM and 29.9 µg/mL | 63.1 µM and 29.5 µg/mL | 135 µM and 63.3 µg/mL | 3.48 | 7.44 ± 0.78 µM | 30 | 64.1 ± 4.78 µM | 1.67 mM and 779 µg/mL | 141 µM and 66 µg/mL | 119 ± 19.7 µM | 55.7 | Selectivity index SI (HELA) [8]: 16.01
8 | COc1ccc(Nc2c(F)cc3c(=O)c(C(=O)O)cn(C4CC4)c3c2[N+](=O)[O-])c(OC)c1 [3g, 1-cyclopropyl-7-(2,4-dimethoxy-phenylamino)-6-fluoro-8-nitro-4-oxo-1,4-dihydro-quinoline-3-carboxylic acid] | > 200 µg/mL | > 200 µg/mL | > 200 µg/mL | – | > 200 µg/mL | – | > 200 µg/mL | > 200 µg/mL | > 200 µg/mL | > 200 µg/mL | – | –
9 | CCn1cc(C(=O)O)c(=O)c2cc(F)c(Nc3ccc(OC)cc3OC)c(N)c21 [12c, 8-amino-7-(2,4-dimethoxy-phenylamino)-1-ethyl-6-fluoro-4-oxo-1,4-dihydro-quinoline-3-carboxylic acid] | 40.9 µM and 16.4 µg/mL | 67.3 µM and 27 µg/mL | 101 µM and 40.4 µg/mL | 15.6 | 38.8 ± 1.91 µM | 10.6 | 26.4 ± 4.54 µM | 93.5 µM and 37.5 µg/mL | – | 43.8 ± 6.21 µM | 17.6 | Selectivity index SI (K562) [8]: 1.65
10 | CCn1cc(C(=O)O)c(=O)c2cc(F)c3c(nnn3-c3ccccc3OC)c21 [13a, 9-ethyl-4-fluoro-3-(2-methoxy-phenyl)-6-oxo-6,9-dihydro-3H-[1,2, and 3] triazolo [4,5-h] quinoline-7-carboxylic acid] | – | – | – | – | – | – | – | – | – | – | – | Cytotoxicity IC50 value, A549 cell line [1]: 94.32 ± 1.44 µg/mL; IC50 [1]: 247 ± 3.78 µM; Cytotoxicity IC50 value, A375.S2 cell line [2]: 203.87 ± 4.80 µg/mL; IC50 [2]: 535 ± 12.6 µM; Cytotoxicity IC50 value, HELA cell line [4]: 20.06 ± 2.62 µg/mL; IC50 [4]: 52.6 ± 6.86 µM; Cytotoxicity IC50 value, K562 cell line [5]: 2.66 ± 0.49 µg/mL; IC50 [5]: 6.98 ± 1.28 µM; Cytotoxicity IC50 value, PANC 1 cell line [6]: 118.30 ± 6.71 µg/mL; IC50 [6]: 310 ± 17.6 µM; Cytotoxicity IC50 value, T47D cell line [7, 19]: 21.93 ± 0.87 µg/mL; IC50 [7, 20]: 57.5 ± 2.27 µM; Selectivity index SI (K562) [8]: 40.01; IC50 [8, 21]: 276 ± 20.7 µM; IC50 value PDL Fibroblasts ([8]; value in brackets): 105.13 ± 7.90 µg/mL (≈ 275 µM)
11 | CCn1cc(C(=O)O)c(=O)c2cc(F)c3c(nnn3-c3cccc(OC)c3)c21 [13b, 9-ethyl-4-fluoro-3-(3-methoxy-phenyl)-6-oxo-6,9-dihydro-3H-[1,2, and 3] triazolo [4,5-h] quinoline-7-carboxylic acid] | – | – | – | – | – | – | – | – | – | – | – | Cytotoxicity IC50 value, A549 cell line [1]: 95.87 ± 9.20 µg/mL; IC50 [1]: 251 ± 24.1 µM; Cytotoxicity IC50 value, A375.S2 cell line [2]: 38.96 ± 3.39 µg/mL; IC50 [2]: 102 ± 8.88 µM; Cytotoxicity IC50 value, MCF7 cell line [3]: 159.18 ± 8.68 µg/mL; IC50 [3]: 417 ± 22.8 µM; Cytotoxicity IC50 value, HELA cell line [4]: 15.99 ± 1.35 µg/mL; IC50 [4]: 41.9 ± 3.55 µM; Cytotoxicity IC50 value, K562 cell line [5]: 22.13 ± 0.85 µg/mL; IC50 [5]: 58 ± 2.22 µM; Cytotoxicity IC50 value, T47D cell line [7, 19]: 44.68 ± 3.49 µg/mL; IC50 [7, 20]: 117 ± 9.15 µM; Selectivity index SI (HELA) [8]: 7.19; IC50 [8, 21]: 332 ± 14.6 µM; IC50 value PDL Fibroblasts ([8]; value in brackets): 126.55 ± 5.58 µg/mL (≈ 331 µM)
12 | N.N.[Cl][Pt][Cl] [Cisplatin, cisplatin, reference compound] | – | – | – | – | – | – | – | – | – | – | – | IC50 [8, 21]: 0.71 ± 0.13 µM; IC50 value PDL Fibroblasts ([8]; value in brackets): 0.21 ± 0.04 µg/mL
